Entries after “also recorded” stand apart in the source; their conditions may differ. Marks after values point to notes of the source that are not given here. Where a SMILES comes first, the peptide text is derived from it. [ ]: non-standard residue; d: D form. The star is where a group is joined. pGlu = O=C1CC[C@@H](C(=O)O)N1; Octanoyl = CCCCCCCC(=O)*
How the values were obtained:
[1] = tested on: TNF alpha; test: TNF alpha secretion in LPS treated human keratinocytes (ELISA); type: cell-based; conditions: for TNF alpha levels / production in LPS treated human keratinocytes (in words): compared with cells stimulated with LPS alone; for TNFα: ZEP3Na without DMSO; for Fold Change: refers to TNF-α concentration in sample #2; for % Inhibition: vs corresponding control group without peptide
Procedure: Methods: SCCE020 cells (EpiGRO™ Human Epidermal Keratinocytes) were grown in complete growth medium (EpiGRO™ Human Keratinocytes Complete Medium; Millipore Cat. #SCMK001) for 4 passages. At passage 5, cells were seeded (3*10^5 cells/well) in triplicates in a volume of 1 ml complete growth medium per well. Additional 3 control wells contained only medium without cells. Upon adherence, cell medium was replaced by basal medium containing L-Glutamine without supplements (starvation medium) and cells were starved overnight. The next day, 24 hours after seeding, the cells were treated with ZEP3 or ZEP3Na or appropriate diluent (PBS or DMSO). After 4 hours of incubation, LPS (from E. Coli 055: B5; Sigma Cat. #L6529-1MG) was added to the wells in final concentration of 20 or 30 μg/ml.
Cells were incubated for 24 hours in tissue culture incubator. After collecting cell supernatants from all wells, cells from treatment groups: 1, 2, 3, 8, 9, 10, 13, 14 (without DMSO groups) were pelleted and stored at −80° C. for further analyses. The cells were collected from as following: upon supernatants collection, the wells were rinsed with trypsin, then incubated with trypsin until they detached from the plate surface, centrifuged, washed with PBS and stored as a cell pellet. TNF-α concentration in the supernatants was measured by ELISA (Quantikine HS ELISA; R&D Systems Cat. #HSTA00D), in 5 replicates.
TNF alpha concentration in the samples was calculated according to the standard curve trend line equation: =0.063x+0.1718. Percent inhibition of TNF alpha production was calculated in each treatment group in comparison to the corresponding control group (same conditions, without peptide).

[2] = tested on: TNF alpha; test: Expression of TNF alpha by B6 macrophage cells treated with LPS and palmitic acid; type: cell-based, mouse
Procedure: Macrophages originating from C57BL/6 mice were cultured at a density of 200,000 cells/mL in a 24-well plate (500 μl wells) and incubated at 37° C. and 5% CO2 overnight. Following incubation, culture media in certain experimental groups were replaced with fresh media containing 100 ng/mL LPS, followed by three hours incubation. Then, the media (LPS-containing or LPS-free) in certain experimental groups were replaced with fresh media containing ZEP4 at concentrations ranging from 3.125 to 100 μg/ml, followed by one-hour incubation. Next, palmitic acid (PA, 200 μM) was added to the appropriate wells and the plates were incubated for additional 24 hours, then the amount of TNF alpha in each well was measured. Reduction in TNF alpha production in the treatment groups was calculated relative to cells treated with LPS and PA (CLP200).
Macrophages originating from C57BL/6 mice were cultured at a density of 200,000 cells/mL in a 24-well plate (500 μl wells) and incubated at 37° C. and 5% CO2 overnight. Following incubation, media were replaced with fresh media containing 100 ng/mL LPS, followed by three hours incubation. The LPS-containing media in the treatment groups were then replaced with fresh media containing ZEP4 at 50 μg/ml, followed by one-hour incubation. Then, aliquots of palmitic acid (100, 200 or 400 μM) were added to appropriate wells. The plates were incubated for additional 24 hour and the amount of TNF alpha in each well was measured. Reduction in TNF alpha production in the treatment groups was calculated relative to cells treated with LPS and PA, according to the PA concentration.
Macrophage cells originating from C57BL/6 mice were cultured at a density of 200,000 cells/mL in a 24-well plate (500 μl wells) and incubated at 37° C. and 5% CO2 overnight. Following incubation, media in certain experimental groups were replaced with fresh media containing 100 ng/mL LPS, followed by three hours incubation. Then, the media (LPS-containing or LPS-free) in certain experimental groups were replaced with fresh media containing ZEP3 at a concentration ranging from 3.125 to 100 μg/ml, followed by one-hour incubation. Next, palmitic acid (200 μM) aliquots were added to the appropriate wells and the plates were incubated for additional 24 hours, then the amount of TNF alpha in each well was measured. Reduction in TNF alpha production in the treatment groups was calculated relative to cells treated with LPS and PA.

[3] = tested on: oxazolone-induced atopic dermatitis (AD) mouse models; test: Oxazolone-induced atopic dermatitis mouse model, clinical lesions; type: in vivo; conditions: for Scaling: period of reduction: 1% cream topical, 50 mg/kg, scaling score of back skin; for Right ear thickness, significant difference in comparison to control: days 20, 22 and 28; for Erythema scoring: days with a significant difference / total score: days with significant difference: vs control group
Procedure: The effect of topical administration of ZEP3 (SEQ ID NO: 1), and its sodium salt form (ZEP3Na), and ZEP4 (SEQ ID NO: 2) was evaluated in oxazolone-induced atopic dermatitis (AD) mouse models. This model is widely used and well described in literature (Avci et al. 2013 Expert Opin Drug Discov. 8, 331-355; Petersen T. K. 2006, Basic Clin. Pharmacol. Toxicol. 99, 104-115) as an accepted animal model for evaluating drugs for AD therapy in humans.

[4] = Oxazolone-induced atopic dermatitis mouse model, tolerability and bodyweights; conditions: for tolerability: 50 mg/kg topical to atopic dermatitis induced mice; for Bodyweights in comparison to the excipient: day 8 to day 28
Procedure: Method: Animals were sensitized by topical administration of oxazolone 2% in ethanol on the back at Day 0 after shaving and depilation of the animals (sensitization phase). Then a challenge was performed one week later by topical administration of oxazolone 1% in ethanol on the back and on right ear every 2 days at 10 occasions namely for total 3 weeks. The tested compounds were applied during the challenge phase every 2 days via the topical route as ready to use cream formulations. The surface of application was the same as for challenge (back+ear). 100 μL were deposited on the back and the back was smoothly massaged. Then, remaining formulation on finger glove was deposited on the internal face of the ear. Every other day, back skin and ears thickness were measured using caliper; and the following clinical scores were recorded from back skin: erythema and scaling. Animals were also weighed every other day (approximate bodyweights of a mouse at startup is about 20 g).
The formulations used for topical administration of the tested compound were: ZEP3 1% cream having pH 7.1 and comprising: Propylene glycol, Polysorbate 80, Edetate Disodium, Silicon dioxide (syloid), Methylparaben, White petrolatum, Isopropyl Myristate, Cetyl Alcohol and Glyceryl Monostearate. ZEP3Na 1% cream having pH 8.0 and comprising: Propylene glycol, Polysorbate 80, Edetate Disodium, Silicon dioxide (syloid), Methylparaben, White petrolatum, Isopropyl Myristate, Cetyl Alcohol and Glyceryl Monostearate. ZEP4 1% cream having pH 4.5 and comprising: Propylene glycol, Glycerin, Polysorbate 80, EDTA Disodium, Xanthan Gum, Silicon dioxide (syloid), Methylparaben, White petrolatum, Isopropyl Myristate, Cetyl Alcohol, Stearyl Alcohol, and Glyceryl Monostearate (kolliwax).

[5] = peptide 3.125 μg/ml, LPS 100 ng/mL, palmitic acid 200 μM, 24 hours
[6] = peptide 3.125 μg/ml, LPS 100 ng/mL, palmitic acid 200 μM, relative to cells treated with LPS and PA
[7] = peptide 6.25 μg/ml, LPS 100 ng/mL, palmitic acid 200 μM, 24 hours
[8] = peptide 6.25 μg/ml, LPS 100 ng/mL, palmitic acid 200 μM, relative to cells treated with LPS and PA
[9] = peptide 12.5 μg/ml, LPS 100 ng/mL, palmitic acid 200 μM, 24 hours
[10] = peptide 12.5 μg/ml, LPS 100 ng/mL, palmitic acid 200 μM, relative to cells treated with LPS and PA
[11] = peptide 25 μg/ml, LPS 100 ng/mL, palmitic acid 200 μM, 24 hours
[12] = peptide 25 μg/ml, LPS 100 ng/mL, palmitic acid 200 μM, relative to cells treated with LPS and PA
[13] = peptide 50 μg/ml, LPS 100 ng/mL, palmitic acid 200 μM, 24 hours
[14] = peptide 50 μg/ml, LPS 100 ng/mL, palmitic acid 200 μM, relative to cells treated with LPS and PA
[15] = peptide 100 μg/ml, LPS 100 ng/mL, palmitic acid 200 μM, 24 hours
[16] = peptide 100 μg/ml, LPS 100 ng/mL, palmitic acid 200 μM, relative to cells treated with LPS and PA
[17] = peptide control: peptide 100 μg/ml, no LPS, no palmitic acid
[18] = peptide 0.2 mg/ml, LPS 20 μg/ml
[19] = peptide 0.2 mg/ml, LPS 30 μg/ml
[20] = peptide 0.4 mg/ml, LPS 20 μg/ml

Row | SMILES | TNF alpha levels / production in LPS treated human keratinocytes (in words) [1] | TNF alpha [2, 5] | % reduction of TNF alpha [2, 6] | TNF alpha [2, 7] | % reduction of TNF alpha [2, 8] | TNF alpha [2, 9] | % reduction of TNF alpha [2, 10] | TNF alpha [2, 11] | % reduction of TNF alpha [2, 12] | TNF alpha [2, 13] | % reduction of TNF alpha [2, 14] | TNF alpha [2, 15] | % reduction of TNF alpha [2, 16] | TNF alpha [2, 17] | Scaling: period of reduction [3] | Right ear thickness, significant difference in comparison to control [3] | Erythema scoring: days with a significant difference [3] | total score: days with significant difference [3] | tolerability [4] | Bodyweights in comparison to the excipient [4] | further results
1 | C[C@@H](O)[C@H](NC(=O)[C@H](Cc1c[nH]c2ccccc12)NC(=O)[C@H](CC(N)=O)NC(=O)[C@@H]1CCC(=O)N1)C(=O)O [ZEP4, pGlu-Asn-Trp-Thr-OH] (HELM PEPTIDE1{[Glp].N.W.T}$$$$V2.0) | effectively diminished | 97.79 pg/mL | 70.6% | 89.83 pg/mL | 73.0% | 93.12 pg/mL | 72.0% | 115.58 pg/mL | 65.2% | 76.23 pg/mL | 77.0% | 211.68 pg/mL | 36.3% | 0 pg/mL | from days 14 to 24 | −12.3 to −16.0% | days 12, 16, 22 and 24 | days 12-20, 24 and 28 | well tolerated | behaved normally | TNF alpha ([2]; Table 2: ZEP4 50 μg/ml, LPS 100 ng/ml, palmitic acid 100 μM): 133.93 pg/mL; % reduction of TNF alpha ([2]; Table 2: ZEP4 50 μg/ml, LPS 100 ng/ml, palmitic acid 100 μM, relative to LPS and PA 100 μM): 67.8**** %; TNF alpha ([2]; Table 2: ZEP4 50 μg/ml, LPS 100 ng/ml, palmitic acid 200 μM): 167.52 pg/mL; % reduction of TNF alpha ([2]; Table 2: ZEP4 50 μg/ml, LPS 100 ng/ml, palmitic acid 200 μM, relative to LPS and PA 200 μM): 63.7**** %; TNF alpha ([2]; Table 2: ZEP4 50 μg/ml, LPS 100 ng/ml, palmitic acid 400 μM): 252.177 pg/mL; % reduction of TNF alpha ([2]; Table 2: ZEP4 50 μg/ml, LPS 100 ng/ml, palmitic acid 400 μM, relative to LPS and PA 400 μM): 57.5**** %; Significant difference on back thickness vs. control group 1 ([3]; day 14): −13.5%
2 | CCCCCCCC(=O)NCCCC[C@H](NC(=O)[C@H](Cc1c[nH]c2ccccc12)NC(=O)[C@H](CC(N)=O)NC(=O)[C@@H]1CCC(=O)N1)C(=O)O [ZEP3, pGlu-Asn-Trp-Lys(Octanoyl)-OH] ([pGlu]NWK(Octanoyl)-OH) | effectively diminished; also recorded: dose dependent inhibition | 41.98 pg/mL | 82.9% | 75.52 pg/mL | 69.2% | 74.83 pg/mL | 69.5% | 61.57 pg/mL | 74.9% | 106.75 pg/mL | 56.4% | 176.22 pg/mL | 28.1% | 10.44 pg/mL | reduced from days 18 to 24 | −10.1 to −18.0% | days 22 and 24 | days 20, 24 and 28 | well tolerated | behaved normally | TNFα ([1]; peptide 0.02 mg/ml, LPS 20 μg/ml, ZEP3 in 0.025% DMSO): 9.6 pg/mL; Fold Change ([1]; peptide 0.02 mg/ml, LPS 20 μg/ml): 3.4; TNFα ([1]; peptide 0.2 mg/ml, LPS 20 μg/ml, ZEP3 in 0.05% DMSO): 6.0 pg/mL; Fold Change [1, 18]: 2.1; % Inhibition [1, 18]: 32%; TNFα ([1]; peptide 0.2 mg/ml, LPS 30 μg/ml, ZEP3 in 0.10% DMSO): 17.3 pg/mL; Fold Change [1, 19]: 6.1; % Inhibition [1, 19]: 20%; TNFα ([1]; peptide 0.4 mg/ml, LPS 20 μg/ml, ZEP3 in 0.10% DMSO): 4.6 pg/mL; Fold Change [1, 20]: 1.6; % Inhibition [1, 20]: 48%; ED50 (reduction of TNF alpha expression) ([2]; macrophage cells treated with LPS 100 ng/mL and palmitic acid 200 μM, estimated): 51.94 µg/mL; Significant difference on back thickness vs. control group 1 ([3]; day 20): −25.5%; Significant difference on back thickness vs. control group 1 ([3]; day 24): −16.6%

From patent US11419913B2, “Pharmaceutical compositions for inhibiting inflammatory cytokines” (S.I.S. SHULOV INNOVATIVE SCIENCE LTD., priority 2018, dated 2022)
